Measured values as given in ChEMBL document CHEMBL3407332, “An efficient synthesis of new caffeine-based chalcones, pyrazolines and pyrazolo[3,4-b][1,4]diazepines as potential antimalarial, antitrypanosomal and antileishmanial agents” (Eur J Med Chem, 2015).
Converted amounts (≈) assume the structure as drawn.

Tests used:
[1] = Cytotoxicity against human U937 cells assessed as cell viability after 72 hrs by MTT assay; format: cell-based, U-937; conditions: read-out: LC50
Leishmania panamensis [2] = test: Antileishmanial activity against amastigote stage of Leishmania panamensis MHOM/CO/87/UA140-EpiR-GFP infected in human U937 cells assessed as parasite growth inhibition at 20 ug/mL after 72 hrs by flow cytometric analysis relative to control; format: functional; conditions: MHOM/CO/87/UA140, U-937, 72 h, read-out: GI
Plasmodium falciparum [3] = test: Antimalarial activity against asynchronic culture of Plasmodium falciparum NF54 assessed as parasite growth inhibition at 20 ug/mL after 48 hrs by ethidium bromide staining-based spectrofluorometric analysis relative to control; format: functional; conditions: NF54, 48 h, read-out: GI
Trypanosoma cruzi [4] = test: Antitrypanosomal activity against amastigote stage of Trypanosoma cruzi Tulahuen infected in human U937 cells assessed as parasite growth inhibition at 20 ug/mL after 72 hrs by beta-galactosidase reporter gene assay relative to control; format: functional; conditions: U-937, 72 h, read-out: GI
Leishmania panamensis [5] = test: Antileishmanial activity against amastigote stage of Leishmania panamensis MHOM/CO/87/UA140-EpiR-GFP infected in human U937 cells assessed as parasite growth inhibition after 72 hrs by flow cytometric analysis; format: functional, organism-based; conditions: MHOM/CO/87/UA140, U-937, 72 h
[6] = Hemolytic activity in human RBC after 48 hrs by spectrophotometric analysis; format: ADME, cell-based, Erythrocyte; conditions: human red blood cells (RBC), read-out: LC50
Leishmania panamensis [7] = test: Antileishmanial activity against amastigote stage of Leishmania panamensis MHOM/CO/87/UA140-EpiR-GFP infected in human U937 cells assessed as parasite growth inhibition at 5 ug/mL after 72 hrs by flow cytometric analysis relative to control; format: functional; conditions: MHOM/CO/87/UA140, U-937, 72 h, read-out: GI
Trypanosoma cruzi [8] = test: Antitrypanosomal activity against amastigote stage of Trypanosoma cruzi Tulahuen infected in human U937 cells assessed as parasite growth inhibition at 1 ug/mL after 72 hrs by beta-galactosidase reporter gene assay relative to control; format: functional; conditions: U-937, 72 h, read-out: GI
Plasmodium falciparum [9] = test: Antimalarial activity against asynchronic culture of Plasmodium falciparum NF54 assessed as parasite growth inhibition after 48 hrs by ethidium bromide staining-based spectrofluorometric analysis; format: functional, organism-based; conditions: NF54, 48 h
Trypanosoma cruzi [10] = test: Antitrypanosomal activity against amastigote stage of Trypanosoma cruzi Tulahuen infected in human U937 cells assessed as parasite growth inhibition after 72 hrs by beta-galactosidase reporter gene assay; format: functional, organism-based; conditions: U-937, 72 h

For `COc1cc(/C=C/C(=O)c2ccccc2)ccc1Oc1nc2c(c(=O)n(C)c(=O)n2C)n1C`, the CC50 at 72 h [1] was 131 µg/mL (≈ 293 µM), the inhibition of growth at 20 µg/mL (Leishmania panamensis [2]) was 40.4% and the inhibition of growth at 20 µg/mL (Plasmodium falciparum [3]) was 27.5%. It also gave an inhibition of growth at 20 µg/mL (Trypanosoma cruzi [4]) of 0%.
`COc1cc(/C=C/C(=O)c2ccc(Cl)cc2)ccc1Oc1nc2c(c(=O)n(C)c(=O)n2C)n1C` gave a CC50 at 72 h [1] of 102 µg/mL (≈ 212 µM), an inhibition of growth at 20 µg/mL (Leishmania panamensis [2]) of 88.3% and an inhibition of growth at 20 µg/mL (Plasmodium falciparum [3]) of 18.4%. For the same compound, the inhibition of growth at 20 µg/mL (Trypanosoma cruzi [4]) was 29.5% and the EC50 (Leishmania panamensis [5]) was 12.9 µg/mL (≈ 26.8 µM).
Work on `COc1cc(/C=C/C(=O)c2ccc(Br)cc2)ccc1Oc1nc2c(c(=O)n(C)c(=O)n2C)n1C` yielded a CC50 at 72 h [1] of 96.5 µg/mL (≈ 184 µM), an inhibition of growth at 20 µg/mL (Leishmania panamensis [2]) of 50.8% and an inhibition of growth at 20 µg/mL (Plasmodium falciparum [3]) of 34.3%. For the same compound, the inhibition of growth at 20 µg/mL (Trypanosoma cruzi [4]) was 0%.
`COc1cc(/C=C/C(=O)c2ccc(C)cc2)ccc1Oc1nc2c(c(=O)n(C)c(=O)n2C)n1C` gave a CC50 at 72 h [1] of 27.5 µg/mL (≈ 59.7 µM), an HC50 at 48 h [6] greater than 200 µg/mL and an inhibition of growth at 20 µg/mL (Plasmodium falciparum [3]) of 54.3%. It also gave an inhibition of growth at 5 µg/mL (Leishmania panamensis [7]) of 21.8%, an inhibition of growth at 1 µg/mL (Trypanosoma cruzi [8]) of 0% and an EC50 (Leishmania panamensis [5]) of 2.6 µg/mL (≈ 5.65 µM). For the same compound, the IC50 (Plasmodium falciparum [9]) was 21.4 µg/mL (≈ 46.5 µM).
`COc1ccc(C(=O)/C=C/c2ccc(Oc3nc4c(c(=O)n(C)c(=O)n4C)n3C)c(OC)c2)cc1` showed a CC50 at 72 h [1] greater than 200 µg/mL, an inhibition of growth at 20 µg/mL (Leishmania panamensis [2]) of 82.6% and an inhibition of growth at 20 µg/mL (Plasmodium falciparum [3]) of 0%. The inhibition of growth at 20 µg/mL (Trypanosoma cruzi [4]) was 27.5% and the EC50 (Leishmania panamensis [5]) was 14.2 µg/mL (≈ 29.8 µM).
In the case of `COc1cc(/C=C/C(=O)c2cc(OC)c(OC)c(OC)c2)ccc1Oc1nc2c(c(=O)n(C)c(=O)n2C)n1C`, the CC50 at 72 h [1] is reported as 3.2 µg/mL (≈ 5.96 µM), the EC50 (Trypanosoma cruzi [10]) is reported as 5.9 µg/mL (≈ 11 µM) and the inhibition of growth at 20 µg/mL (Plasmodium falciparum [3]) is reported as 6.4%. For the same compound, the inhibition of growth at 5 µg/mL (Leishmania panamensis [7]) was 48.8%, the inhibition of growth at 1 µg/mL (Trypanosoma cruzi [8]) was 9.7% and the EC50 (Leishmania panamensis [5]) was 2.6 µg/mL (≈ 4.85 µM).
Compound `COc1cc(C2CC(c3ccccc3)=NN2)ccc1Oc1nc2c(c(=O)n(C)c(=O)n2C)n1C` (configuration not stated) has a CC50 at 72 h [1] of 19.8 µg/mL (≈ 43 µM), an HC50 at 48 h [6] greater than 200 µg/mL and an inhibition of growth at 20 µg/mL (Plasmodium falciparum [3]) of 85.2%. The inhibition of growth at 5 µg/mL (Leishmania panamensis [7]) was 0%, the inhibition of growth at 1 µg/mL (Trypanosoma cruzi [8]) was 0% and the IC50 (Plasmodium falciparum [9]) was 13.7 µg/mL (≈ 29.8 µM).
Work on `COc1cc(C2CC(c3ccc(Cl)cc3)=NN2)ccc1Oc1nc2c(c(=O)n(C)c(=O)n2C)n1C` (configuration not stated) yielded a CC50 at 72 h [1] of 34.6 µg/mL (≈ 69.9 µM), an inhibition of growth at 20 µg/mL (Leishmania panamensis [2]) of 7.7% and an inhibition of growth at 20 µg/mL (Plasmodium falciparum [3]) of 23.9%. The inhibition of growth at 20 µg/mL (Trypanosoma cruzi [4]) was 36.4%.
Work on `COc1cc(C2CC(c3ccc(Br)cc3)=NN2)ccc1Oc1nc2c(c(=O)n(C)c(=O)n2C)n1C` (configuration not stated) yielded a CC50 at 72 h [1] greater than 200 µg/mL, an inhibition of growth at 20 µg/mL (Leishmania panamensis [2]) of 60% and an HC50 at 48 h [6] greater than 200 µg/mL. The inhibition of growth at 20 µg/mL (Plasmodium falciparum [3]) was 56.8%, the inhibition of growth at 20 µg/mL (Trypanosoma cruzi [4]) was 0% and the EC50 (Leishmania panamensis [5]) was 19.5 µg/mL (≈ 36.2 µM). It also gave an IC50 (Plasmodium falciparum [9]) of 20.8 µg/mL (≈ 38.6 µM).
`COc1cc(C2CC(c3ccc(C)cc3)=NN2)ccc1Oc1nc2c(c(=O)n(C)c(=O)n2C)n1C` (configuration not stated) gave a CC50 at 72 h [1] of 53.2 µg/mL (≈ 112 µM), an inhibition of growth at 20 µg/mL (Leishmania panamensis [2]) of 0% and an EC50 (Trypanosoma cruzi [10]) of 19.4 µg/mL (≈ 40.9 µM). The inhibition of growth at 20 µg/mL (Plasmodium falciparum [3]) was 46.1% and the inhibition of growth at 20 µg/mL (Trypanosoma cruzi [4]) was 61.9%.
With `COc1ccc(C2=NNC(c3ccc(Oc4nc5c(c(=O)n(C)c(=O)n5C)n4C)c(OC)c3)C2)cc1` (configuration not stated) the CC50 at 72 h [1] was greater than 200 µg/mL, the inhibition of growth at 20 µg/mL (Leishmania panamensis [2]) was 0% and the inhibition of growth at 20 µg/mL (Plasmodium falciparum [3]) was 13.1%. The inhibition of growth at 20 µg/mL (Trypanosoma cruzi [4]) was 25.9%.
`COc1cc(C2CC(c3cc(OC)c(OC)c(OC)c3)=NN2)ccc1Oc1nc2c(c(=O)n(C)c(=O)n2C)n1C` (configuration not stated) showed a CC50 at 72 h [1] greater than 200 µg/mL, an inhibition of growth at 20 µg/mL (Leishmania panamensis [2]) of 73% and an inhibition of growth at 20 µg/mL (Plasmodium falciparum [3]) of 30.7%. For the same compound, the inhibition of growth at 20 µg/mL (Trypanosoma cruzi [4]) was 0% and the EC50 (Leishmania panamensis [5]) was 15.8 µg/mL (≈ 28.7 µM).
`COc1cc(C2CC(c3ccccc3)=NN2C(C)=O)ccc1Oc1nc2c(c(=O)n(C)c(=O)n2C)n1C` (configuration not stated) gave a CC50 at 72 h [1] of 14.8 µg/mL (≈ 29.5 µM), an HC50 at 48 h [6] greater than 200 µg/mL and an inhibition of growth at 20 µg/mL (Plasmodium falciparum [3]) of 62.5%. For the same compound, the inhibition of growth at 5 µg/mL (Leishmania panamensis [7]) was 35.2%, the inhibition of growth at 1 µg/mL (Trypanosoma cruzi [8]) was 0% and the IC50 (Plasmodium falciparum [9]) was 18.4 µg/mL (≈ 36.6 µM).
In the case of `COc1cc(C2CC(c3ccc(Cl)cc3)=NN2C(C)=O)ccc1Oc1nc2c(c(=O)n(C)c(=O)n2C)n1C` (configuration not stated), the CC50 at 72 h [1] is reported as greater than 200 µg/mL, the inhibition of growth at 20 µg/mL (Leishmania panamensis [2]) is reported as 39.1% and the inhibition of growth at 20 µg/mL (Plasmodium falciparum [3]) is reported as 22.1%. For the same compound, the inhibition of growth at 20 µg/mL (Trypanosoma cruzi [4]) was 9.8%.
For `COc1cc(C2CC(c3ccc(Br)cc3)=NN2C(C)=O)ccc1Oc1nc2c(c(=O)n(C)c(=O)n2C)n1C` (configuration not stated), the CC50 at 72 h [1] was 110 µg/mL (≈ 189 µM), the inhibition of growth at 20 µg/mL (Leishmania panamensis [2]) was 82.8% and the inhibition of growth at 20 µg/mL (Plasmodium falciparum [3]) was 44.1%. It also gave an inhibition of growth at 20 µg/mL (Trypanosoma cruzi [4]) of 24.3% and an EC50 (Leishmania panamensis [5]) of 14.3 µg/mL (≈ 24.6 µM).
With `COc1cc(C2CC(c3ccc(C)cc3)=NN2C(C)=O)ccc1Oc1nc2c(c(=O)n(C)c(=O)n2C)n1C` (configuration not stated) the CC50 at 72 h [1] was greater than 200 µg/mL, the inhibition of growth at 20 µg/mL (Leishmania panamensis [2]) was 63.7% and the inhibition of growth at 20 µg/mL (Plasmodium falciparum [3]) was 35.6%. The inhibition of growth at 20 µg/mL (Trypanosoma cruzi [4]) was 30.6% and the EC50 (Leishmania panamensis [5]) was 18.1 µg/mL (≈ 35 µM).
